{"source": "patent US12616750B2", "about": "“Combination therapy utilizing DNA alkylating agents and ATR inhibitors” (Merck Patent GmbH, priority 2018, dated 2026)", "type_in_all_cases": "cell-based", "key": {"MDA-MB-453 cells [1]": {"system": "MDA-MB-453 cells", "assay": "Cytotoxicity (cell viability, CellTiter-Glo, 6 d)", "procedure": "(§1) Dose-matrix combination assays were performed as described above, but performed in opague 384-well plates (2k viable cells/well). Compounds were added using Tecan D300e liquid. Protein solutions were supplemented with 0.3% Tween-20 (final) and diluted to 1 μM. All wells were normalized to the maximum amount of DMSO (maximum 0.4%) or Tween-20 added. […] Luminescence values were normalized to luminescence of non-treated cells and dose-response was fitted using Smart Fit. Synergy scores were calculated using LOEWE synergy model."}, "NCI-N87 cells [2]": {"system": "NCI-N87 cells", "assay": "Cytotoxicity (cell viability, CellTiter-Glo, 6 d)", "details": "Homo sapiens; NCI-N87, agent alone, 384-well format (footnote a)", "procedure": "as §1"}, "MDA-MB-453 cells [3]": {"system": "MDA-MB-453 cells", "assay": "Dose-matrix combination assay (synergy score, Loewe model)", "details": "combination with AZD6738; MDA-MB-453", "procedure": "(§2) Dose-matrix combination assays were performed as described above, but performed in opague 384-well plates (2k viable cells/well). Compounds were added using Tecan D300e liquid. Protein solutions were supplemented with 0.3% Tween-20 (final) and diluted to 1 μM. All wells were normalized to the maximum amount of DMSO (maximum 0.4%) or Tween-20 added. Read out of luminescence was performed on Envision 2104 Multilabel Reader (Perkin Elmer) and data were evaluated using Genedata Screener® version 14.0.6-Standard (Genedata AG). Luminescence values were normalized to luminescence of non-treated cells and dose-response was fitted using Smart Fit. Synergy scores were calculated using LOEWE synergy model.\n(§3) The screening of synergistic drug combinations can be accomplished by performing a dose-matrix assay. Therefore, two drugs are serial diluted and mixed at every dose level, yielding a dose-matrix. The drug combination can be additive if the effects of the combination are identical to the added effects of the single agents. However, the effects of the combination might also be stronger than the activity of the single agents. This scenario is termed synergy, whereas weaker combination effects compared to the single agents are termed antagonism. A dose-matrix assay is depicted schematically in FIG. 2 which illustrates the outcomes of a dose-matrix assay: additivity, antagonism and synergy."}, "NCI-N87 cells [4]": {"system": "NCI-N87 cells", "assay": "Dose-matrix combination assay (synergy score, Loewe model)", "details": "combination with AZD6738; NCI-N87", "procedure": "as §2, §3"}, "JIMT-1 cells": {"system": "JIMT-1 cells", "assay": "Cytotoxicity (cell viability, CellTiter-Glo, 6 d)", "details": "JIMT-1, agent alone, 384-well format (footnote a)", "procedure": "Evaluation was performed using GraphPad Prism version 6.05.\nas §2"}, "MDA-MB-468 cells [5]": {"system": "MDA-MB-468 cells", "assay": "Cytotoxicity (cell viability, CellTiter-Glo, 6 d)"}, "[6]": {"system": "HCC-1954 cells treated with ATR, CHK1 or non-targeting siRNA", "assay": "Cytotoxicity of duocarmycins on siRNA knock-down cells", "details": "6 d", "procedure": "0.7*10^6 viable cells were seeded in a T25 flask, 5 mL of medium were added and the cells were incubated at 37° C. and 5% C02 overnight. The transfection was carried out as follows: 2.5 μL Lipofectamine RNAiMAX were diluted with 247.5 μL OptiMEM and a 0.3 μM siRNA (ATR, CHK1 or non-targeting siRNA) solution was prepared in OptiMEM to yield 250 μL final volume. The solutions were mixed and incubated for 20 min at room temperature, followed by the addition of 500 μL cell culture medium. The cell culture medium was removed from the cells, washed with PBS (3×) and the transfection mix was added to the cells. After 4 h incubation at 37° C. and 5% CO2, the transfection mix was removed in vacuo. The cells were washed with medium (3×), 5 mL medium were added and the cells were incubated for 60 h at 37° C. and 5% CO2. Then cells were detached, and seeded into 384-well plates. Then a cytotoxicity assay was performed as described before, but with one compound only\nTherefore, HCC-1954 cells were seeded into T25 flasks and left to adhere overnight. Then the cells were washed with PBS, and subsequently ATR, CHK1 and non-targeting siRNA were added. The cells were incubated for 4 h, washed with medium and incubated for 3 d. Cells were detached and seeded into 384-well plates. They were treated with duocarmycins for 6 d. Cell viability was determined via CellTiter-Glo assay kit, and data were evaluated using GraphPad Prism. The knock-down efficiency was evaluated using quantitative PCR."}, "HCC-1954 cells [7]": {"system": "HCC-1954 cells", "assay": "Cytotoxicity (cell viability, CellTiter-Glo, 6 d)", "details": "Homo sapiens", "procedure": "as §1\nAfter 6 d of treatment, CellTiter-Glo luminescent assay was performed and the luminescence was read on Envision Reader. The results were analyzed using GeneData Screener as described before."}, "HCC-1954 cells [8]": {"system": "HCC-1954 cells", "assay": "Dose-matrix combination assay (synergy score, Loewe model)", "details": "combination with AZD6738, HCC-1954, 6 d", "procedure": "as §1, §3\n(§4) The screening was conducted by serial diluting the duocarmycin derivative DUBA (10) and the DDR inhibitors. […] DUBA was combined in a dose-matrix assay with hycanthone. The cell viability was measured after 6 d of treatment using the CellTiter-Glo assay kit. The signals of the cell viability assay were normalized to untreated cells and fitted. […] By subtracting the modeled data from the fitted data, an excess matrix was generated. The excess matrix can be considered as a visualization of the differences between model and actual data which also highlights spots of either high synergy or antagonism. The quantification of the combination effects, however, was performed by calculating synergy scores. […] Besides synergy score, the potency of the drugs in monotherapy was obtained from these experiments. […] The potency was obtained from this dose-response curve.\n(§5) The scattering of S was determined in a sham control experiment to define a cutoff for classifying a combination as truly synergistic or antagonistic. Thus seven different compounds were combined with itself on four different cell lines and the three-σ confidence interval was calculated around the mean of the measurement. […] For the sake of convenience, the cutoff was set to a value of ±1.\n(§6) Synergy scores (S) were obtained from the combination experiments that indicated additivity […] if model and actual response were equal. […] The magnitude of the score determined the extent of the combination effects."}, "MCF7 cells": {"system": "MCF7 cells", "assay": "Cytotoxicity (cell viability)", "details": "MCF7 (EGFR −, MET −), Table 10", "procedure": "(§7) Curve-shift assays were conducted as follows: The cell number and viability was determined using ViCell™-XR (Beckman Coulter) and seeded in opague 96-well plate (10k viable cells/well). After seeding, the plate was incubated (37° C., 5% C02) in a humid chamber overnight. Compounds were diluted in the appropriate medium, added to the cells and the plate was incubated (37° C., 5% CO2, 6 d) in a humid chamber. After 30 min equilibration at room temperature, CellTiter-Glo reagent (Promega) was added. After the plate was shaken (3 min, 550 rpm, rt) it was incubated (10 min, rt) and luminescence was read on a synergy 4 plate reader (BioTek). Evaluation was performed using GraphPad Prism version 6.05. Therefor luminescence values were normalized to luminescence values of non-treated cells and dose-response was fitted with 4-point logistic fit.\nas §2"}, "A549 cells [9]": {"system": "A549 cells", "assay": "Cytotoxicity (cell viability)", "details": "A549 (EGFR +, MET +), Table 10", "procedure": "as §7, §2"}, "A431 cells": {"system": "A431 cells", "assay": "Cytotoxicity (cell viability)", "details": "A431 (EGFR ++, MET +), Table 10", "procedure": "as §7, §2"}, "A549 cells [10]": {"system": "A549 cells", "assay": "Dose-matrix combination assay (synergy score, Loewe model)", "details": "combination with AZD6738; A549 (EGFR-positive), 6 d", "procedure": "as §2, §3"}, "MDA-MB-468 cells [11]": {"system": "MDA-MB-468 cells", "assay": "Dose-matrix combination assay (synergy score, Loewe model)", "details": "combination with AZD6738; MDA-MB-468 (EGFR-positive), 6 d", "procedure": "as §1, §3, §4, §5, §6"}}, "note": "Read-outs that look alike come from different tables or passages of the source.", "data": [{"smiles": "Cc1cccc2c(O)cc3c(c12)[C@H](CCl)CN3C(=O)c1cn2cc(NC(=O)c3ccc(O)cc3)ccc2n1", "note": "[compound 10]", "values": [{"measurement": "IC50", "setting": "MDA-MB-453 cells [1]; Homo sapiens, MDA-MB-453", "result": "300 ± 100", "unit": "pM"}, {"measurement": "IC50", "setting": "NCI-N87 cells [2]", "result": "1200 ± 500", "unit": "pM"}, {"measurement": "Synergy score S", "setting": "MDA-MB-453 cells [3]", "result": "5.0±0.5"}, {"measurement": "Synergy score S", "setting": "NCI-N87 cells [4]", "result": "3.1+0.6"}, {"measurement": "IC50", "setting": "JIMT-1 cells; Homo sapiens", "result": "3000 ± 2000", "unit": "pM"}, {"measurement": "IC50", "setting": "MDA-MB-468 cells [5]; Homo sapiens, MDA-MB-468", "result": "60 ± 20", "unit": "pM"}, {"measurement": "IC50", "setting": "[6]; Homo sapiens, HCC1954, 144 h, ATR knock-down HCC-1954 cells", "result": 250, "unit": "pM"}, {"measurement": "IC50", "setting": "HCC-1954 cells [7]; HCC1954, HCC-1954, agent alone, 384-well format (footnote a)", "result": "300 ± 70", "unit": "pM"}, {"measurement": "IC50", "setting": "HCC-1954 cells [7]; HCC1954, duocarmycin variant alone, HCC-1954, mean ± SD or mean (individual values)", "result": "200 ± 100", "unit": "pM"}, {"measurement": "Synergy score S", "setting": "HCC-1954 cells [8]", "result": "6.7 (6.3, 7.2) 6.9 ± 0.7"}, {"measurement": "Synergy score S", "setting": "HCC-1954 cells [8]; listed as DUBA", "result": "6.9±0.7"}, {"measurement": "Synergy score S", "setting": "HCC-1954 cells [8]; listed as DUBA (10)", "result": "6.9±0.7"}]}, {"smiles": "CN(C)CCOc1ccc2[nH]c(C(=O)N3C[C@@H](CCl)c4c3cc(O)c3ccccc43)cc2c1", "note": "[compound 38]", "values": [{"measurement": "IC50", "setting": "MCF7 cells", "result": "164 ± 4", "unit": "pM"}, {"measurement": "IC50", "setting": "A549 cells [9]", "result": "100 ± 100", "unit": "pM"}, {"measurement": "IC50", "setting": "A431 cells", "result": "55 ± 5", "unit": "pM"}, {"measurement": "IC50", "setting": "MDA-MB-453 cells [1]; MDA-MB-453, agent alone, 384-well format (footnote a), read-out: IC50", "result": 140, "unit": "pM"}, {"measurement": "Synergy score S", "setting": "A549 cells [10]", "result": "2.0±1.1"}, {"measurement": "IC50", "setting": "JIMT-1 cells", "result": 140, "unit": "pM"}, {"measurement": "IC50", "setting": "MDA-MB-468 cells [5]; MDA-MB-468 (EGFR +++, MET +), Table 10, read-out: IC50", "result": "20 ± 10", "unit": "pM"}, {"measurement": "IC50", "setting": "MDA-MB-468 cells [5]; MDA-MB-468, agent alone, 384-well format (footnote a), read-out: IC50", "result": "20 ± 10", "unit": "pM"}, {"measurement": "IC50", "setting": "[6]; ATR knock-down HCC-1954 cells", "result": 14, "unit": "pM"}, {"measurement": "IC50", "setting": "[6]; CHK1 knock-down HCC-1954 cells", "result": 133, "unit": "pM"}, {"measurement": "Synergy score S", "setting": "MDA-MB-468 cells [11]", "result": "6.0±1.0"}, {"measurement": "Synergy score S", "setting": "HCC-1954 cells [8]", "result": "5.6 ± 1.7 5.1 (4.8, 5.3)"}, {"measurement": "Synergy score S", "setting": "HCC-1954 cells [8]; listed as DDM", "result": "5.6+1.7"}, {"measurement": "Synergy score S", "setting": "HCC-1954 cells [8]; listed as DDM (38)", "result": "5.6±1.7"}]}]}
